30 substances from patent US20240115705A1, “Regulation of Butyrophilin subfamily 3 member A1 (BTN3A1, CD277)” (The J. Gladstone Institutes, a testamentary trust …, priority 2021, published 2024) can be followed below.

The test system of this series is Daudi-Cas9 cells. Briefly: Cancer-T cell co-culture genome-wide CRISPR knockout screen (Vγ9Vδ2 T cell killing). In kind it is cell-based, human.
[1] abbreviates: MAGeCK sgRNA test, co-culture screen.
Where [2] appears, read: log-fold change of sgRNA, surviving cells after co-culture vs baseline, MAGeCK.
[3] abbreviates: sgRNA abundance in surviving Daudi-Cas9 KO cells after 24 hours Vγ9Vδ2 T cell co-culture with zoledronate, MAGeCK.
[4] abbreviates: sgRNA enriched (TRUE) or depleted (FALSE) after T cell co-culture.

Read-outs that look alike come from different tables or passages of the source.

Regarding “ALCAM_GTGTGCATGCTAGTAACTG: library sgRNA targeting ALCAM (listed as DNA, chemistry not fully specified)”, under setting [1], the score was 6.8519. The substance also had an LFC under setting [2] of 1.5404. The treat mean under setting [3] worked out at 2462.2. Besides, under setting [4], the high_in_treatment entry is on record as “TRUE”.

Under setting [1], “SPI1_CACGTCCTCGATACCCCCA: library sgRNA targeting SPI1 (as printed in the source, key not given here)” had a score of 9.6891. The same substance came in with an LFC under setting [2] of 1.4776. This substance also registered a treat mean under setting [3] of 5441.8. In addition, the high_in_treatment result under setting [4] is reported as “TRUE”.

In the case of “OIP5_CGACTCGGTGCACCTCGCC: library sgRNA targeting OIP5 (as printed in the source, key not given here)”, the score under setting [1] amounted to 6.3045. This substance also returned an LFC under setting [2] of −7.255. The substance also returned a treat mean under setting [3] of 16.543. Besides, under setting [4], the high_in_treatment result was “FALSE”.

For the substance “ABCF1_AGCATCTCCGCTCATGGCA: library sgRNA targeting ABCF1 (listed as DNA, chemistry not fully specified)”, under setting [1], the score came to 5.9741. The substance further displayed an LFC under setting [2] of −2.7126. The treat mean under setting [3] is recorded as 504.57. Besides, the high_in_treatment result under setting [4] is “FALSE”.

For “BTN3A1_AGGGAACTTCTGATGGTAC: library sgRNA targeting BTN3A1 (listed as DNA, chemistry not fully specified)”, the score under setting [1] is 8.7326. The substance further had an LFC under setting [2] of 1.7308. The same substance displayed a treat mean under setting [3] of 3095. The high_in_treatment entry under setting [4] is given as “TRUE”.

“IRF1_CACCTCCTCGATATCTGGC: library sgRNA targeting IRF1 (as printed in the source, key not given here)”: the score under setting [1] is reported as 8.8869. This substance returned an LFC under setting [2] of 1.2122. Also, the treat mean under setting [3] came out at 7029.4. Besides, the high_in_treatment result under setting [4] is “TRUE”.

For the substance “IRF1_CTAGGCCGATACAAAGCAG: library sgRNA targeting IRF1 (as printed in the source, key not given here)”, the score under setting [1] stood at 9.7786. The substance further displayed an LFC under setting [2] of 1.6906. Moreover, the treat mean under setting [3] is reported as 4103.9. For the same substance, under setting [4], the high_in_treatment result was “TRUE”.

Substance “SPIB_CTGGGGCTACTGACGCGCG: library sgRNA targeting SPIB (as printed in the source, key not given here)” displayed a score under setting [1] of 12.692. Besides, the LFC under setting [2] was found to be 1.6241. Further, the treat mean under setting [3] was 7610.7. Moreover, the high_in_treatment entry under setting [4] was “TRUE”.

“ALG12_TGCGATCACCACTGGCCCG: library sgRNA targeting ALG12 (listed as DNA, chemistry not fully specified)” yielded a score under setting [1] of 6.0622. This substance returned an LFC under setting [2] of −3.0699. The same substance gave a treat mean under setting [3] of 374.84. For the same substance, the high_in_treatment result under setting [4] is “FALSE”.

“NUDCD3_TCACCACGTGCTTGGGTAC: library sgRNA targeting NUDCD3 (listed as DNA, chemistry not fully specified)” had a score under setting [1] of 6.5243. The substance further returned an LFC under setting [2] of −3.6651. This substance showed a treat mean under setting [3] of 262.75. Also, the high_in_treatment result under setting [4] is recorded as “FALSE”.

For “IRF1_GGAAGCATGCTGCCAAGCA: library sgRNA targeting IRF1 (as printed in the source, key not given here)”, the score under setting [1] is listed as 8.5638. The LFC under setting [2] is 1.6107. The substance also had a treat mean under setting [3] of 3499.5. The high_in_treatment result under setting [4] is given as “TRUE”.

With “IRF1_AGCCGAGATGCTAAGAGCA: library sgRNA targeting IRF1 (as printed in the source, key not given here)”, the score under setting [1] was 8.1693. In addition, under setting [2], the LFC stood at 1.6173. For the same substance, the treat mean under setting [3] amounted to 3151.9. Moreover, the high_in_treatment entry under setting [4] is given as “TRUE”.

On to “PNLIPRP1_GCCCCTGAAAATTCTCCCC: library sgRNA targeting PNLIPRP1 (chemistry not given here)”, for which the LFC is −2.1878, the high_in_treatment entry is recorded as “FALSE”, the score was found to be 7.0018 and the treat mean was 1182.9.

“BTN2A1_TCTCCATGCCTGATGCAGA: library sgRNA targeting BTN2A1 (listed as DNA, chemistry not fully specified)” came in with a score under setting [1] of 11.104. Under setting [2], this substance showed an LFC of 1.6551. The treat mean under setting [3] was 5566.5. For the same substance, the high_in_treatment result under setting [4] was “TRUE”.

Consider “SHMT2_TGCTCGACTTTTCCGGCCA: library sgRNA targeting SHMT2 (listed as DNA, chemistry not fully specified)”, for which the score under setting [1] came to 6.1486. In addition, the LFC under setting [2] is −3.7292. The same substance gave a treat mean under setting [3] of 220.66. Also, the high_in_treatment result under setting [4] is recorded as “FALSE”.

Consider “FCRL2_ACTATTTCTGTAGTACCAA: library sgRNA targeting FCRL2 (listed as DNA, chemistry not fully specified)”, for which, under setting [1], the score stood at 6.1577. Under setting [2], this substance showed an LFC of 2.9186. In addition, the treat mean under setting [3] was 417.46. Further, under setting [4], the high_in_treatment result is recorded as “TRUE”.

Under setting [1], “UGGT2_TTCGCAATCTTGGGATCAA: library sgRNA targeting UGGT2 (listed as DNA, chemistry not fully specified)” displayed a score of 8.3503. In addition, under setting [2], the LFC amounted to 1.6772. Under setting [3], this substance yielded a treat mean of 3035.8. Besides, under setting [4], the high_in_treatment entry is listed as “TRUE”.

On to “NAPG_GCAAAAGATGCCTGCCTGA: library sgRNA targeting NAPG (listed as DNA, chemistry not fully specified)”, for which the score under setting [1] is recorded as 6.3569. Also, the LFC under setting [2] is given as −6.2732. The substance further gave a treat mean under setting [3] of 33.086. The high_in_treatment result under setting [4] is listed as “FALSE”.

As to “SPIB_CGGGTCGAAGGCTTCATAG: library sgRNA targeting SPIB (as printed in the source, key not given here)”, the score under setting [1] came out at 6.9394. The substance also yielded an LFC under setting [2] of 1.7479. Under setting [3], the treat mean was 1900.6. For the same substance, the high_in_treatment entry under setting [4] is recorded as “TRUE”.

As for “RFXAP_ACGAGGAGACTCACTCGGG: library sgRNA targeting RFXAP (listed as DNA, chemistry not fully specified)”, the score under setting [1] is given as 6.9897. The substance further showed an LFC under setting [2] of 2.2103. Also, under setting [3], the treat mean is reported as 1110.2. Moreover, under setting [4], the high_in_treatment entry is reported as “TRUE”.

The substance “SAE1_TGCTTCTTGTCGGCTTGAA: library sgRNA targeting SAE1 (listed as DNA, chemistry not fully specified)” came in with a score under setting [1] of 7.1879. Under setting [2], this substance came in with an LFC of −7.4222. Further, under setting [3], the treat mean is listed as 19.337. Besides, under setting [4], the high_in_treatment result is “FALSE”.

On to “ARL14EPL_TTAATAGCAACAAATAGAG: library sgRNA targeting ARL14EPL (listed as DNA, chemistry not fully specified)”, for which the score under setting [1] turned out to be 7.215. The substance further returned an LFC under setting [2] of 3.9422. In addition, under setting [3], the treat mean came out at 227.01. Besides, under setting [4], the high_in_treatment entry is “TRUE”.

Regarding “BTN2A1_ATGAGGGGCCATGAAGACG: library sgRNA targeting BTN2A1 (listed as DNA, chemistry not fully specified)”, the score under setting [1] was 7.3174. This substance registered an LFC under setting [2] of 2.3876. Further, the treat mean under setting [3] was 1007.3. Further, under setting [4], the high_in_treatment entry is listed as “TRUE”.

In the case of “BCCIP_AATCTCTTACTGAAGCTGC: library sgRNA targeting BCCIP (listed as DNA, chemistry not fully specified)”, the score under setting [1] came out at 6.3357. In addition, the LFC under setting [2] is −5.3797. This substance showed a treat mean under setting [3] of 64.834. Further, the high_in_treatment entry under setting [4] is “FALSE”.

For the substance “RFXAP_ACAGGGTTGCATCACTAGC: library sgRNA targeting RFXAP (listed as DNA, chemistry not fully specified)”, the score under setting [1] is 10.037. The LFC under setting [2] is listed as 1.6018. The treat mean under setting [3] was 4884.6. Besides, the high_in_treatment result under setting [4] is reported as “TRUE”.

Substance “TSC2_AGCATCTCATACACACGCG: library sgRNA targeting TSC2 (listed as DNA, chemistry not fully specified)” showed a score under setting [1] of 6.0284. Besides, the LFC under setting [2] is reported as −2.8218. Besides, the treat mean under setting [3] was 463.96. For the same substance, the high_in_treatment entry under setting [4] is reported as “FALSE”.

Take “WDR61_ATTCCATCTATGGCTCCAC: library sgRNA targeting WDR61 (as printed in the source, key not given here)”: the score under setting [1] came to 6.193. Further, the LFC under setting [2] is reported as −9.1046. For the same substance, the treat mean under setting [3] is reported as 2.9058. The high_in_treatment result under setting [4] was “FALSE”.

As to “DNLZ_CAGCTCGTCTACACCTGCA: library sgRNA targeting DNLZ (as printed in the source, key not given here)”, the score under setting [1] worked out at 6.2683. Under setting [2], this substance registered an LFC of −8.2244. Under setting [3], this substance gave a treat mean of 6.7801. Besides, the high_in_treatment result under setting [4] is listed as “FALSE”.

In turn, “SPIB_GGGTACGGGGCATATGCCG: library sgRNA targeting SPIB (as printed in the source, key not given here)” showed a score under setting [1] of 10.693. This substance returned an LFC under setting [2] of 1.7824. In addition, the treat mean under setting [3] is on record as 4360. For the same substance, the high_in_treatment result under setting [4] is on record as “TRUE”.

“IFFO1_GGCCTGGGTCGTCGCGACC: library sgRNA targeting IFFO1 (as printed in the source, key not given here)”: the score under setting [1] is recorded as 5.9717. Under setting [2], this substance came in with an LFC of 4.5353. The same substance came in with a treat mean under setting [3] of 68.011. For the same substance, the high_in_treatment result under setting [4] is on record as “TRUE”.
